Source: patent publication US8029795B2, “Targeted iron chelator delivery system” (Gwathmey, Inc., priority 1999, dated 2011)

What was measured:
[1] = al-Refaie et al. 1992; cited from earlier work
[2] = set-up: species or system Sprague Dawley rats; conditions: rat, in vivo
Description: Sprague Dawley rats (n=130) were obtained from Charles River Laboratories and were iron overloaded by twelve week administration of iron in the feed. The rats were divided into the following groups: • (i) overloaded (O), • (ii) liposomes injected (OL), • (iii) overloaded animals with liposome entrapped desferrioxamine (OLD), and • (iv) overloaded with desferrioxamine (OD).
All control groups were pooled as there were not significant differences between the groups of normal non-treated controls. Range for iron was 35-150 μg/gram dry weight (human assay lab). A hepatic index of 1.0 is normal and results of 1.0-1.9 are described as nonspecific iron accumulation (human standards). […] FIGS. 4 and 5 show myocardial tissue from rat with iron overload.

[3] = background statement; cited from earlier work

SMILES | severe agranulocytosis, share of patients [1] | toxic effects in control rats [2] | oral absorption [3]
Cc1c(O)c(=O)ccn1C [deferiprone] | about 2% |  | 
CC(=O)N(O)CCCCCNC(=O)CCC(=O)N(O)CCCCCNC(=O)CCC(=O)N(O)CCCCCN [desferrioxamine] |  | Neither liposomes nor desferrioxamine (DFO) had toxic effects | very low
